We go through 21 molecules from patent US9365541B2, “Compounds for use in the treatment of parasitic diseases” (IRBM—SCIENCE PARK S.P.A., priority 2012, dated 2016).

pEC50, pIC50: −log10 of the molar value.

In one test the target is T1, human HDAC1 (Homo sapiens, UniProt Q13547).
T1 construct: made in house; host or cells: HeLa (ATCC CCL-2), mammalian cells
Description: Homo sapiens HDAC1 inhibition assay (Fluor-de-Lys, enzymatic). The format is biochemical. Conditions: human HDAC enzymatic assay; read-out: hHDAC IC50. The protocol:
Biology Homo sapiens HDAC1 Inhibition Assay Overview:
The aim of the assay is to evaluate the inhibition of the deacetylase activity of human HDAC1. To such goal an acetylated substrate is added to the enzyme mix; the resulting enzymatic product is converted to a fluorescent molecule by the addition the enzyme trypsine (developer solution). Fluorescence intensity is inversely proportional to the rate of inhibition of the enzyme (as indicated in the material section below).
Reagents of the HDAC Fluorescent Activity Assay are purchased from Enzo Life Sciences (http://www.enzolifesciences.com/BML-AK500/fluor-de-lys-hdac-fluorometric-activity-assay-kit/) and feature the Fluor-de-Lys™ Substrate/Developer System.
c) Trichostatin A (TSA) Stock
TSA (Sigma-Aldrich, T8552) is provided as a 10 mM stock solution in 100% dimethylsulfoxide (DMSO).
Diluted Substrate Solution
The final concentration in the assay is 20 μM.
Diluted Developer Solution
2 μM [final] TSA to this solution increases its ability to stop the reaction.
The HDAC1 enzyme is diluted in assay buffer prior to each use from a fresh aliquot of enzyme.
The final concentration in the assay is 1-2 nM.
Test compounds should be prepared in 100% DMSO and transferred to the assay by a nano volume dispenser to reach the appropriate concentration and the appropriate DMSO concentration (0.25%) in the reaction.

The subject of test [1] is Plasmodium falciparum 3D7. As to the kind of experiment: P. falciparum growth inhibition assay (Pf-LDH). The test is classed as cell-based. The note with it: Plasmodium falciparum, Erythrocyte; P. falciparum 3D7 infected erythrocytes, 72 h incubation, PfLDH readout. How it is done:
Basic culture of Plasmodium falciparum 3D7 parasites (Malaria Research and Reference Reagent Resource Center (MR4), MR4 Number: MRA-102).
Starting with a culture with a parasitemia of about 10% (and 5% hematocrit), 0.5 ml of the culture is placed in a fresh 100 mm petri dish with 0.95 ml of fresh erythrocytes (50% hematocrit) and 8.55 ml of culture medium, giving a new starting parasitemia of 0.5%. The petri dish is then incubated at 37° C. in a humidified gas-tight plastic box flushed with a gas mixture consisting of 93% N2, 4% CO2, and 3% O2. The culture medium is changed daily. The supernatant is removed by gently tipping the dish without disturbing the settled cells and aspirating the medium with a Pasteur pipette connected to a vacuum pump. A small amount of the concentrated cells is taken to prepare a blood smear for determination of the parasitemia. Normally, the cultures are split twice a week. If the parasites are growing very slowly then fresh erythrocytes are added to the culture no later than after 7 days. The cultures are then split 1:2 if the parasitemia is lower than 0.5%. To avoid the necessity of daily medium change on weekends, a culture with a 2.5% hematocrit and 0.1-0.2% parasitemia is set up and can be left for 3 days without medium change.
Standard medium consists of RPMI 1640, supplemented with 25 mM HEPES, 24 mM NaHCO3, 0.36 mM hypoxanthine, 100 μg/ml Neomycin, 5 g/1 Albumax® II, and washed human red blood cells (rbcs) A+.
P. falciparum Growth Inhibition Assay (Pf-LDH)
Compounds of the invention were assessed for in vitro antimalarial activity against a cloroquine sensitive (3D7) strain of the malaria parasite Plasmodium falciparum, using a lactate dehydrogenase (PfLDH) assay.
EC50 Determination by Pf-LDH Assay
384 plates (where compounds to be tested are dispensed) with 25 μl of parasite inoculum (parasitemia: 0.25%, hematocrit: 2%) are incubated at 37° C. in an atmosphere of 4% CO2, 3% O2, 93% N2. After 72 h of incubation, plates are frozen at −70° C. overnight and thawed at room temperature for at least 4 h. To evaluate PfLDH activity, 70 μl of freshly made reaction mix (143 mM sodium L-lactate, 143 μM 3-acetyl pyridine adenine dinucleotide (APAD), 178.75 μM Nitro Blue tetrazolium chloride (NBT), 286 μg/ml diaphorase (2.83 U/ml), 0.7% Tween 20, 100 mM Tris-HCl pH 8.0) is dispensed using a Multidrop Combi dispenser. Plates are shaken to ensure mixing and absorbance at 650 nm is monitored in a plate reader after 10 min of incubation at room temperature.
Negative controls (0% Effect) are produced by addition of DMSO to the proper wells.
Positive controls (100% Effect) are produced by addition of 150 nM Artemisinin (Sigma-Aldrich, 361593)
After result normalization using positive and negative controls, compound potency is determined by fitting the following equation: % inh=Ymin+(Ymax−Ymin)/(1+(X/EC50)^slope)) Where: • Ymin=minimum percentage effect • Ymax=maximum percentage effect • EC50=the concentration of the compound at which 50% effect is reached • Slope=the slope of the curve calculated at the EC50 Histone Hyperacetylation and Immunodetection of Altered Histone Modifications Assay

T1 sequence (Q13547 whole entry): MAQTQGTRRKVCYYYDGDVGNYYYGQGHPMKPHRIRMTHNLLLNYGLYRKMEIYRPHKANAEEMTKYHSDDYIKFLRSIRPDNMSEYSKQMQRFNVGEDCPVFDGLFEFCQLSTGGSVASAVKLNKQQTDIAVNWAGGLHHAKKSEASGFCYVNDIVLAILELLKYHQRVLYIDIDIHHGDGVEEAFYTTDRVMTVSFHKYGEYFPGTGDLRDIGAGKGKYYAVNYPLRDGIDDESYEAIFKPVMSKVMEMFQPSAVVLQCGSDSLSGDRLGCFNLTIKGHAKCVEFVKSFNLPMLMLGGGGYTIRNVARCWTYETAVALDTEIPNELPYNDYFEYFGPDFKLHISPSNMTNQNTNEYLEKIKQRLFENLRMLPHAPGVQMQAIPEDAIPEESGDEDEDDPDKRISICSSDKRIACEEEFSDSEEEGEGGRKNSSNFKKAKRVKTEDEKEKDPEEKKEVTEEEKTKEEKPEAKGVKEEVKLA

In general, pIC50 refers to −log10 of the IC50, conventionally taken in molar units. One may read the pEC50 as −log10 of the EC50, conventionally taken in molar units. In the case of `CNC(=O)CCCCC[C@H](NC(=O)CN1CCCCC1)c1ncc(-c2ccc3ccccc3c2)[nH]1` [Entry 1], the pIC50 on human HDAC1 is 5.30 to 6.00. In test [1], this molecule showed a negative logarithm of the EC50 (pEC50) of 5.30 to 6.00.
`CNC(=O)CCCCC[C@H](NC(=O)c1ccnc2c1CCCN2)c1ncc(-c2ccc3ccccc3c2)[nH]1` [Entry 2, (S)-N-(7-(methylamino)-1-(5-(naphthalen-2-yl)-1H-imidazol-2-yl)-7-oxoheptyl)-5,6,7,8-tetrahydro-1,8-naphthyridine-4-carboxamide]: the negative logarithm of the IC50 (pIC50) at human HDAC1 is 5.30 to 6.00. Moreover, the pEC50 in test [1] was 5.30 to 6.00.
Turning to `CNC(=O)CCCCC[C@H](NS(=O)(=O)c1cccc([N+](=O)[O-])c1)c1ncc(-c2ccc3ccccc3c2)[nH]1` [Entry 3], at human HDAC1, the negative logarithm of the IC50 (pIC50) was more than 6.00. In test [1], this molecule had a negative-log EC50 (pEC50) of more than 6.00.
With `CNC(=O)CCCCC[C@H](NC(=O)[C@H]1CCN(C)C1)c1ncc(-c2ccc3ccccc3c2)[nH]1` [Entry 4, (S)-1-methyl-N-((S)-7-(methylamino)-1-(5-(naphthalen-2-yl)-1H-imidazol-2-yl)-7-oxo-heptyl)pyrrolidine-3-carboxamide], the negative-log IC50 (pIC50) on human HDAC1 was more than 6.00. This molecule showed a pEC50 in test [1] of 5.30 to 6.00.
As to `CNC(=O)CCCCC[C@H](NC(=O)C1CCN(C)CC1)c1ncc(-c2ccc3ccccc3c2)[nH]1` [Entry 5, (S)-1-methyl-N-(7-(methylamino)-1-(5-(naphthalen-2-yl)-1H-imidazol-2-yl)-7-oxo-heptyl)piperidine-4-carboxamide], the negative-log IC50 (pIC50) on human HDAC1 was more than 6.00. The molecule also showed a pEC50 in test [1] of 5.30 to 6.00.
In the same order, the values of `CNC(=O)CCCCC[C@H](NC(=O)Cn1ccnn1)c1ncc(-c2cc3ccccc3nc2OC)[nH]1` [Entry 6, (S)-7-(2-(1H-1,2,3-triazol-1-yl)acetamido)-7-(5-(2-methoxyquinolin-3-yl)-1H-imidazol-2-yl)-N-methylheptanamide] are 5.30 to 6.00 and 5.30 to 6.00.
In the same order, the values of `CNC(=O)CCCCC[C@H](NC(=O)Cn1nnc2ccccc21)c1ncc(-c2cc3ccccc3nc2OC)[nH]1` [Entry 7] are more than 6.00 and 5.30 to 6.00.
In the same order, the values of `CCc1nc2ccccc2n1CCC(=O)N[C@@H](CCCCCC(=O)NC)c1ncc(-c2cc3ccccc3nc2OC)[nH]1` [Entry 8, (S)-7-(3-(2-ethyl-1H-benzo[d]imidazol-1-yl)propanamido)-7-(5-(2-methoxyquinolin-3-yl)-1H-imidazol-2-yl)-N-methylheptanamide] are more than 6.00 and 5.30 to 6.00.
As to `CNC(=O)CCCCC[C@H](NC(=O)c1cc(C)nn1C)c1ncc(-c2cc3ccccc3nc2OC)[nH]1` [Entry 9, (S)-N-(1-(5-(2-methoxyquinolin-3-yl)-1H-imidazol-2-yl)-7-(methylamino)-7-oxoheptyl)-1,3-dimethyl-1H-pyrazole-5-carboxamide], the pIC50 on human HDAC1 was more than 6.00. In addition, the negative logarithm of the EC50 (pEC50) in test [1] was 5.30 to 6.00.
In the same order, the values of `CNC(=O)CCCCC[C@H](NC(=O)c1cncs1)c1ncc(-c2ccc3cccnc3c2)[nH]1` [Entry 10] are less than 5.30 and 5.30 to 6.00.
In the same order, the values of `CNC(=O)CCCCC[C@H](NC(=O)Cn1cncn1)c1ncc(-c2ccc(-n3cccn3)cc2)[nH]1` [Entry 11, (S)-7-(2-(1H-1,2,4-triazol-1-yl)acetamido)-7-(5-(4-(1H-pyrazol-1-yl)phenyl)-1H-imidazol-2-yl)-N-methylheptanamide] are less than 5.30 and less than 5.30.
In the same order, the values of `CNC(=O)CCCCC[C@H](NC(=O)c1cnsc1)c1ncc(-c2ccc(-n3cccn3)cc2)[nH]1` [Entry 12, (S)-N-(1-(5-(4-(1H-pyrazol-1-yl)phenyl)-1H-imidazol-2-yl)-7-(methylamino)-7-oxoheptyl)isothiazole-4-carboxamide] are 5.30 to 6.00 and 5.30 to 6.00.
Regarding `CNC(=O)CCCCC[C@H](NC(=O)c1cccc2nc(C)c(C)nc12)c1ncc(-c2ccc3ccccc3c2)[nH]1` [Entry 13, (S)-2,3-dimethyl-N-(7-(methylamino)-1-(5-(naphthalen-2-yl)-1H-imidazol-2-yl)-7-oxo-heptyl)quinoxaline-5-carboxamide], the pIC50 on human HDAC1 was 5.30 to 6.00. In addition, in test [1], the negative logarithm of the EC50 (pEC50) is 5.30 to 6.00.
`CNC(=O)CCCCC[C@H](NC(=O)c1cncs1)c1ncc(-c2ccc3cc(OC)cnc3c2)[nH]1` [Entry 14]: the pIC50 at human HDAC1 was 5.30 to 6.00. Besides, the pEC50 in test [1] was 5.30 to 6.00.
For `CNC(=O)CCCCC[C@H](NC(=O)Cc1cnc2ccccn12)c1ncc(-c2ccc3ccncc3c2)[nH]1` [Entry 15, (S)-7-(2-(imidazo[1,2-a]pyridin-3-yl)acetamido)-7-(5-(isoquinolin-7-yl)-1H-imidazol-2-yl)-N-methylheptanamide], the pIC50 at human HDAC1 is more than 6.00. The molecule also had a pEC50 in test [1] of 5.30 to 6.00.
In the same order, the values of `CNC(=O)CCCCC[C@H](NC(=O)c1ccns1)c1ncc(-c2ccc(-c3ccn(C)n3)cc2)[nH]1` [Entry 16, (S)-N-(1-(5-(4-(1-methyl-1H-pyrazol-3-yl)phenyl)-1H-imidazol-2-yl)-7-(methylamino)-7-oxoheptyl)isothiazole-5-carboxamide] are 5.30 to 6.00 and more than 6.00.
In the same order, the values of `CNC(=O)CCCCC[C@H](NC(=O)c1cnc(C)s1)c1ncc(-c2ccc(-c3ccn(C)n3)cc2)[nH]1` [Entry 17, (S)-2-methyl-N-(1-(5-(4-(1-methyl-1H-pyrazol-3-yl)phenyl)-1H-imidazol-2-yl)-7-(methylamino)-7-oxoheptyl)thiazole-5-carboxamide] are 5.30 to 6.00 and more than 6.00.
In the same order, the values of `CNC(=O)CCCCC[C@H](NC(=O)C1CN(C)C1)c1ncc(-c2cc3ccccc3[nH]c2=O)[nH]1` [Entry 18, (S)-1-methyl-N-(7-(methylamino)-7-oxo-1-(5-(2-oxo-1,2-dihydroquinolin-3-yl)-1H-imidazol-2-yl)heptyl)azetidine-3-carboxamide] are 5.30 to 6.00 and less than 5.30.
Regarding `COc1ccc2[nH]c(C)c(CC(=O)N[C@@H](CCCCCC(N)=O)c3ncc(-c4ccc5ccccc5c4)[nH]3)c2c1` [Entry 96, (S)-7-(2-(5-methoxy-2-methyl-1H-indol-3-yl)acetamido)-7-(5-(naphthalen-2-yl)-1H-imidazol-2-yl)heptanamide], the pEC50 in test [1] is more than 6.00.
Take `CNC(=O)CCCCC[C@H](NC(=O)[C@H]1CCN(C)C1)c1ncc(-c2ccc3ccccc3c2)[nH]1` [Entry 149, (S)-1-methyl-N-((S)-7-(methylamino)-1-(5-(naphthalen-2-yl)-1H-imidazol-2-yl)-7-oxo-heptyl)pyrrolidine-3-carboxamide]: the negative logarithm of the IC50 (pIC50) at human HDAC1 is 5.30 to 6.00.
As for `CNC(=O)CCCCC[C@H](NC(=O)c1cncs1)c1ncc(-c2cc3ccccc3nc2OC)[nH]1` [Entry 178, (S)-N-(1-(5-(2-methoxyquinolin-3-yl)-1H-imidazol-2-yl)-7-(methylamino)-7-oxoheptyl)thiazole-5-carboxamide], in test [1], the negative-log EC50 (pEC50) is more than 6.00.
